# Measured values reported in article PMC3277864 (Molecular Pharmaceutics, 2011).
# Where a SMILES comes first, the peptide text is derived from it. [ ]: non-standard residue; d: D form. The star is where a group is joined. Dolaproine = CO[C@@H]([C@@H]1CCCN1)[C@@H](C)C(=O)O; Dil = CC[C@H](C)[C@H](NC)[C@@H](CC(=O)O)OC; X1 = C[C@@H](N*)[C@@H](O)c1ccccc1; NMeV = CN[C@H](C(=O)O)C(C)C
# Columns and labels:
# BALB/c mice = assay: Gross toxicity of mice; format: in vivo, mouse
# 4T1 mammary carcinoma = conditions: murine breast cancer 4T1 model, 0.5 mg/kg; cited from earlier work
# MDA-MB-435 cells [1] = conditions: 72 hrs incubation period; cited from earlier work
# MDA-MB-435 cells [2] = assay: Cytotoxicity assay; format: cell-based, human; conditions: 48 hrs incubation
# HEK-293L cells = assay: Cytotoxicity assay; format: cell-based, human; conditions: 48 hrs incubation
structure (smiles),measurement,setting,value
"CC[C@H](C)[C@@H]([C@@H](CC(=O)N1CCC[C@H]1[C@H](OC)[C@@H](C)C(=O)N[C@H](C)[C@@H](O)c1ccccc1)OC)N(C)C(=O)[C@@H](NC(=O)[C@@H](NC)C(C)C)C(C)C [MMAE, 1, monomethylauristatin E] (H-[NMeV]V[Dil][Dolaproine]-X1)",Dose beyond which found considerably toxic to mice,BALB/c mice,0.1 mg/kg
same,Death (%),"BALB/c mice; i.p. 5x, dose 0.1 mg/kg",20%
same,Wt. loss (%),"BALB/c mice; i.p. 5x, dose 0.1 mg/kg, weighed for 3 weeks",33.4%
same,Death (%),"BALB/c mice; i.p. 5x, dose 0.5 mg/kg",100%
same,Death (%),"BALB/c mice; i.p. 5x, dose 1.5 mg/kg",100%
same,Animal death in 4T1 study,4T1 mammary carcinoma,all animals died
same,Activities to MDA-MB-435 cells,MDA-MB-435 cells [1],subnanomolar to low nanomolar activities
same,In vitro cytotoxicity (comparison in words),MDA-MB-435 cells [2],more potent than the prodrugs 3 and 8
same,In vitro cytotoxicity (comparison in words),HEK-293L cells,more potent than the prodrugs 3 and 8
